Patent US11230527B2, “Solid forms of 2-(5-(4-(2-morpholinoethoxy)phenyl)pyridin-2-yl)-n- benzylacetamide” (Athenex HK Innovative Limited, priority 2017, dated 2022)
Values after ≈ are worked out from the molar mass of the structure shown. Read-outs that look alike come from different tables or passages of the source.

What was measured:
Format in all cases: physicochemical
Solubility estimation = experiment: Solubility estimation
Method: Solubility of the solid forms of the present application in a variety of solvents is measured. Solvent is added to a sample until the total volume reaches 100 μL, followed by 100 μL per step until the sample is dissolved or the concentration is less than <1.0 mg/mL. The approximate solubility is then calculated.
Solubility of the solid forms of the present application in a variety of solvents was measured according to the following procedures. A sample (˜2 mg) was weighed into a 4-mL glass vial. Solvent was added into the vial stepwise at 50 μL per step until the total volume was 100 μL, followed by 100 μL per step until concentration was less than 1.0 mg/mL. The solutions were mixed thoroughly after each addition by sonication for 2 minutes and vortexing for 1 minute. The addition of solvent was complete if the sample was dissolved or the concentration was <1.0 mg/mL. The volumes of solvent (V1 and V2) were recorded, and approximate solubility was calculated.

[1] = Dynamic Vapor Sorption (DVS); conditions: for XRPD pattern after exposure to DVS experiment: 25° C. and RH up to 95%; for water uptake: between 0 and 80% RH at between 25° C. and 45° C.
Method: Dynamic Vapor Sorption (DVS) was measured using a SMS (Surface Measurement Systems) DVS Intrinsic. The test was performed at 25° C. while the RH was varied from 0% to 95% at 10% increments in the range of 0% RH-90% RH and at 5% increment up to 95% RH. The change in mass after each increase or decrease in the RH was recorded as a percentage of the original mass of the starting material. Dynamic Vapor Sorption (DVS) was measured using a SMS (Surface Measurement Systems) DVS Intrinsic, using the following parameters: [table]

[2] = HPLC chemical stability after storage at various conditions; conditions: for Area Percent at 248 nm T1 week: 1 week; for Area Percent at 248 nm T2 week: 2 weeks; for Area Percent at 248 nm T4 week: 4 weeks; for Area Percent at 248 nm T8 week: 8 weeks; for change in HPLC area percent purity (LCAP): selected storage conditions, time points over eight-week study
Method: High-performance Liquid Chromatography (HPLC) analysis was performed to determine the chemical stability of Forms A, B, and C of Compound A after storage at various conditions, using an Agilent 1100 system with DAD. Chemical stability was estimated by measuring and comparing the area percent of the material peak at various time points. For High-performance Liquid Chromatography (HPLC) analysis, an Agilent 1100 system with DAD was used.

[3] = XRPD physical form stability under storage conditions; conditions: up to eight weeks
Method: XRPD analysis is carried out using a diffractometer running in reflection mode. The 2-theta position is calibrated against a standard before running the experiment. XRPD analysis was carried out on a Panalytical X'Pert^3 Powder XRPD on a Si zero-background holder, scanning the samples between 3 and 40° 2-theta. The 2-theta position was calibrated against Panalytical 640 Si powder standard. The test material was gently compressed on a glass disc inserted into a sample holder. The sample was then loaded into a Panalytical X'Pert^3 Powder XRPD diffractometer running in reflection mode and analyzed, using the following experimental conditions.

For O=C(Cc1ccc(-c2ccc(OCCN3CCOCC3)cc2)cn1)NCc1ccccc1 [Form B, 2-(5-(4-(2-morpholinoethoxy)phenyl)pyridin-2-yl)-N-benzylacetamide], the thermodynamic aqueous solubility (Solubility estimation; aqueous) was “below 1.5 mg/ml”, the “aqueous solubility (dissolved completely)” value (Solubility estimation; aqueous solution (e.g., water), room temperature) was > 20000 µg/mL and the hygroscopicity [1] was “non-hygroscopic”. For the same molecule, the “XRPD pattern after exposure to DVS experiment” value [1] was “does not change”, the water uptake [1] was “less than 0.2 % w/w” and the “Area Percent at 248 nm T1 week” value ([2]; 25° C./60% RH) was 99.8 Area Percent. For the same molecule, the “Area Percent at 248 nm T2 week” value ([2]; 25° C./60% RH) was 99.7 Area Percent, the “Area Percent at 248 nm T4 week” value ([2]; 25° C./60% RH) was 99.8 Area Percent and the “Area Percent at 248 nm T8 week” value ([2]; 25° C./60% RH) was 99.8 Area Percent. The “Area Percent at 248 nm T0” value ([2]; 25° C./60% RH) was 99.8 Area Percent, the “Area Percent at 248 nm T1 week” value ([2]; 40° C./75% RH) was 99.8 Area Percent and the “Area Percent at 248 nm T2 week” value ([2]; 40° C./75% RH) was 99.8 Area Percent. The “Area Percent at 248 nm T4 week” value ([2]; 40° C./75% RH) was 99.7 Area Percent, the “Area Percent at 248 nm T8 week” value ([2]; 40° C./75% RH) was 99.8 Area Percent and the “Area Percent at 248 nm T0” value ([2]; 40° C./75% RH) was 99.8 Area Percent. The “Area Percent at 248 nm T1 week” value ([2]; 55° C./75% RH) was 99.8 Area Percent, the “Area Percent at 248 nm T2 week” value ([2]; 55° C./75% RH) was 99.7 Area Percent and the “Area Percent at 248 nm T4 week” value ([2]; 55° C./75% RH) was 99.7 Area Percent. For the same molecule, the “Area Percent at 248 nm T8 week” value ([2]; 55° C./75% RH) was 99.7 Area Percent, the “Area Percent at 248 nm T0” value ([2]; 55° C./75% RH) was 99.8 Area Percent and the “Area Percent at 248 nm T1 week” value ([2]; Ambient) was 99.8 Area Percent. The “Area Percent at 248 nm T2 week” value ([2]; Ambient) was 99.7 Area Percent, the “Area Percent at 248 nm T4 week” value ([2]; Ambient) was 99.8 Area Percent and the “Area Percent at 248 nm T8 week” value ([2]; Ambient) was 99.8 Area Percent. For the same molecule, the “Area Percent at 248 nm T0” value ([2]; Ambient) was 99.8 Area Percent, the “change in HPLC area percent purity (LCAP)” value [2] was “no significant decrease” and the “change in physical form (XRPD)” value ([3]; 25° C./60% RH) was “no change in physical form”. The “change in physical form (XRPD)” value ([3]; 40° C./75% RH) was “no change in physical form”, the “change in physical form (XRPD)” value ([3]; 55° C./75% RH) was “no change in physical form” and the “change in physical form (XRPD)” value ([3]; ambient conditions) was “no change in physical form”.
O=C(Cc1ccc(-c2ccc(OCCN3CCOCC3)cc2)cn1)NCc1ccccc1 [Form C, 2-(5-(4-(2-morpholinoethoxy)phenyl)pyridin-2-yl)-N-benzylacetamide] gave a solubility (Solubility estimation; 1,4-Dioxane, organic solvent or mixture, thermodynamic from solid, 1,4-Dioxane, read-out: Solubility) of 12600 to 25100 µg/mL (≈ 29.2 to 58.2 mM), a solubility (Solubility estimation; 2-MeTHF, organic solvent or mixture, thermodynamic from solid, 2-MeTHF, read-out: Solubility) of 5100 to 6380 µg/mL (≈ 11.8 to 14.8 mM) and a solubility (Solubility estimation; ACN, organic solvent or mixture, thermodynamic from solid, ACN, read-out: Solubility) of 4430 to 5540 µg/mL (≈ 10.3 to 12.8 mM). For the same molecule, the solubility (Solubility estimation; Acetone, organic solvent or mixture, thermodynamic from solid, Acetone, read-out: Solubility) was 5690 to 8590 µg/mL (≈ 13.2 to 19.9 mM), the solubility (Solubility estimation; CHCl3, organic solvent or mixture, thermodynamic from solid, CHCl3, read-out: Solubility) was 25900 to 51800 µg/mL (≈ 60 to 120 mM) and the solubility (Solubility estimation; DCM, organic solvent or mixture, thermodynamic from solid, DCM, read-out: Solubility) was 1330 to 1440 µg/mL (≈ 3.08 to 3.34 mM). For the same molecule, the solubility (Solubility estimation; EtOAc, organic solvent or mixture, thermodynamic from solid, EtOAc, read-out: Solubility) was 2370 to 2630 µg/mL (≈ 5.49 to 6.09 mM), the solubility (Solubility estimation; EtOH, organic solvent or mixture, thermodynamic from solid, EtOH, read-out: Solubility) was 5140 to 6420 µg/mL (≈ 11.9 to 14.9 mM) and the solubility (Solubility estimation; H2O, water, thermodynamic from solid, H2O, read-out: Solubility) was < 1000 µg/mL. The solubility (Solubility estimation; IPA, organic solvent or mixture, thermodynamic from solid, IPA, read-out: Solubility) was 1300 to 1390 µg/mL (≈ 3.01 to 3.22 mM), the solubility (Solubility estimation; IPAc, organic solvent or mixture, thermodynamic from solid, IPAc, read-out: Solubility) was 1080 to 1150 µg/mL (≈ 2.5 to 2.66 mM) and the solubility (Solubility estimation; MIBK, organic solvent or mixture, thermodynamic from solid, MIBK, read-out: Solubility) was 1610 to 1760 µg/mL (≈ 3.73 to 4.08 mM). The “solubility” value (Solubility estimation; MTBE, heated to 50° C.) was “soluble”, the solubility (Solubility estimation; MTBE, organic solvent or mixture, thermodynamic from solid, MTBE, read-out: Solubility) was < 1000 µg/mL and the “solubility” value (Solubility estimation; MTBE, room temperature) was “insoluble”. For the same molecule, the solubility (Solubility estimation; MeOH, organic solvent or mixture, thermodynamic from solid, MeOH, read-out: Solubility) was 9580 to 19200 µg/mL (≈ 22.2 to 44.4 mM), the solubility (Solubility estimation; THF, organic solvent or mixture, thermodynamic from solid, THF, read-out: Solubility) was 11000 to 22000 µg/mL (≈ 25.5 to 51 mM) and the solubility (Solubility estimation; n-Heptane, organic solvent or mixture, thermodynamic from solid, n-Heptane, read-out: Solubility) was < 1000 µg/mL. The solubility (Solubility estimation; n-heptane, organic solvent or mixture, thermodynamic from solid, n-heptane, room temperature and when heated to 50° C., read-out: Solubility) was < 1000 µg/mL, the solubility (Solubility estimation; organic solvent or mixture, thermodynamic from solid, methanol, ethanol, isopropanol, acetone, MIBK, ethyl acetate, isopropyl acetate, tetrahydrofuran, 2-Me-THF, 1,4-dioxane, acetonitrile, dichloromethane, chloroform, toluene, room temperature and 50° C., read-out: Solubility) was > 1000 µg/mL and the solubility (Solubility estimation; toluene, organic solvent or mixture, thermodynamic from solid, toluene, read-out: Solubility) was 1510 to 1610 µg/mL (≈ 3.5 to 3.73 mM). For the same molecule, the solubility (Solubility estimation; water, thermodynamic from solid, aqueous solution (water), room temperature and when heated to 50° C., read-out: Solubility) was < 1000 µg/mL, the hygroscopicity [1] was “non-hygroscopic” and the “XRPD pattern after exposure to DVS experiment” value [1] was “does not change”. The water uptake [1] was “less than 0.2 % w/w”, the “Area Percent at 248 nm T1 week” value ([2]; 25° C./60% RH) was 99.9 Area Percent and the “Area Percent at 248 nm T2 week” value ([2]; 25° C./60% RH) was 99.9 Area Percent. For the same molecule, the “Area Percent at 248 nm T4 week” value ([2]; 25° C./60% RH) was 99.8 Area Percent, the “Area Percent at 248 nm T8 week” value ([2]; 25° C./60% RH) was 99.9 Area Percent and the “Area Percent at 248 nm T0” value ([2]; 25° C./60% RH) was 99.8 Area Percent. For the same molecule, the “Area Percent at 248 nm T1 week” value ([2]; 40° C./75% RH) was 99.8 Area Percent, the “Area Percent at 248 nm T2 week” value ([2]; 40° C./75% RH) was 99.8 Area Percent and the “Area Percent at 248 nm T4 week” value ([2]; 40° C./75% RH) was 99.9 Area Percent. The “Area Percent at 248 nm T8 week” value ([2]; 40° C./75% RH) was 99.9 Area Percent, the “Area Percent at 248 nm T0” value ([2]; 40° C./75% RH) was 99.8 Area Percent and the “Area Percent at 248 nm T1 week” value ([2]; 55° C./75% RH) was 99.9 Area Percent. The “Area Percent at 248 nm T2 week” value ([2]; 55° C./75% RH) was 99.8 Area Percent, the “Area Percent at 248 nm T4 week” value ([2]; 55° C./75% RH) was 99.8 Area Percent and the “Area Percent at 248 nm T8 week” value ([2]; 55° C./75% RH) was 99.9 Area Percent. The “Area Percent at 248 nm T0” value ([2]; 55° C./75% RH) was 99.8 Area Percent, the “Area Percent at 248 nm T1 week” value ([2]; Ambient) was 99.8 Area Percent and the “Area Percent at 248 nm T2 week” value ([2]; Ambient) was 99.8 Area Percent. For the same molecule, the “Area Percent at 248 nm T4 week” value ([2]; Ambient) was 99.8 Area Percent, the “Area Percent at 248 nm T8 week” value ([2]; Ambient) was 99.9 Area Percent and the “Area Percent at 248 nm T0” value ([2]; Ambient) was 99.8 Area Percent. For the same molecule, the “change in HPLC area percent purity (LCAP)” value [2] was “no significant decrease”, the “change in physical form (XRPD)” value ([3]; 25° C./60% RH) was “no change in physical form” and the “change in physical form (XRPD)” value ([3]; 40° C./75% RH) was “no change in physical form”. The “change in physical form (XRPD)” value ([3]; 55° C./75% RH) was “no change in physical form” and the “change in physical form (XRPD)” value ([3]; ambient conditions) was “no change in physical form”.
